Measured values: the supplement of paper PMC10307832

What was measured:
Assay in all cases: relative viability (nuclei count vs DMSO), 5 days (fraction); higher = more cells survive
[1] = compound: CC1=CC=C(C=C1)C(=O)CN2C3=C(CCCC3)SC2=N [Pifithrin_alpha] + CS(=O)(=O)N1CCN(Cc2cc3nc(-c4cccc5[nH]ncc45)nc(N4CCOCC4)c3s2)CC1 [Pictilisib] (partner 1 µM)
In short: (§1)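 Relative viability equals treated-well nuclei counts divided by vehicle-well nuclei counts. Counts came from 4× images of lung cancer cell lines grown in 1536-well plates for 5 days after pin-tool dosing on the day after seeding. Dosing used one drug alone or a fixed anchor-drug dose plus five library-drug doses (not always all listed) in √10 steps, and values are medians of duplicate plates.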

[2] = compound: Nc1nc(Nc2ccc3c(c2)CC[C@@H](N2CCCC2)CC3)nn1-c1cc2c(nn1)-c1ccccc1CCC2 [Bemcentinib] + Nc1ncn([C@H]2C[C@H](O)[C@@H](CO)O2)c(=O)n1 [Decitabine] (partner 2 µM)
In short: as §1

[3] = compound: Nc1nc(Nc2ccc3c(c2)CC[C@@H](N2CCCC2)CC3)nn1-c1cc2c(nn1)-c1ccccc1CCC2 [Bemcentinib] + CS(=O)(=O)N1CCN(Cc2cc3nc(-c4cccc5[nH]ncc45)nc(N4CCOCC4)c3s2)CC1 [Pictilisib] (partner 1 µM)
In short: as §1

[4] = compound: CC1=CC=C(C=C1)C(=O)CN2C3=C(CCCC3)SC2=N [Pifithrin_alpha] + CS(=O)(=O)CCNCc1ccc(-c2ccc3ncnc(Nc4ccc(OCc5cccc(F)c5)c(Cl)c4)c3c2)o1 [Lapatinib] (partner 2 µM)
In short: as §1

Cell Line | relative viability ([1]; first compound 1 µM) | relative viability ([1]; first compound 3.162 µM) | relative viability ([1]; first compound 10 µM) | relative viability ([1]; first compound 31.62 µM) | relative viability ([1]; first compound 100 µM) | relative viability ([2]; first compound 0.04 µM) | relative viability ([2]; first compound 0.1265 µM) | relative viability ([2]; first compound 0.4 µM) | relative viability ([2]; first compound 1.265 µM) | relative viability ([2]; first compound 4 µM) | relative viability ([3]; first compound 0.04 µM) | relative viability ([3]; first compound 0.1265 µM) | relative viability ([3]; first compound 0.4 µM) | relative viability ([3]; first compound 1.265 µM) | relative viability ([3]; first compound 4 µM) | relative viability ([4]; first compound 1 µM) | relative viability ([4]; first compound 3.162 µM) | relative viability ([4]; first compound 10 µM) | relative viability ([4]; first compound 31.62 µM) | relative viability ([4]; first compound 100 µM)
NCI-H23 | 0.491 | 0.459 | 0.491 | 0.343 | 0.365 | 0.305 | 0.302 | 0.297 | 0.31 | 0.328 | 0.443 | 0.503 | 0.541 | 0.453 | 0.476 | 1.26 | 1.13 | 1 | 0.682 | 0.839
NCI-H322M | 0.54 | 0.45 | 0.503 | 0.44 | 0.428 | 0.686 | 0.731 | 0.716 | 0.841 | 0.704 | 0.512 | 0.522 | 0.418 | 0.525 | 0.564 | 0.578 | 0.621 | 0.557 | 0.635 | 0.613
NCI-H358 | 0.276 | 0.346 | 0.368 | 0.333 | 0.317 | 0.202 | 0.209 | 0.211 | 0.212 | 0.263 | 0.331 | 0.347 | 0.336 | 0.372 | 0.359 | 0.507 | 0.447 | 0.486 | 0.425 | 0.429
NCI-H460 | 0.317 | 0.353 | 0.31 | – | 0.371 | 0.479 | 0.595 | 0.605 | 0.483 | 0.5 | 0.252 | 0.267 | 0.412 | 0.26 | 0.374 | 1.2 | 1.21 | 1.1 | – | 0.533
NCI-H520 | 0.27 | 0.311 | 0.301 | 0.269 | 0.285 | 0.515 | 0.593 | 0.511 | 0.499 | 0.512 | 0.289 | 0.309 | 0.316 | 0.288 | 0.406 | 1.01 | 0.978 | 0.88 | 0.694 | 0.878
NCI-H596 | 0.354 | 0.349 | 0.379 | 0.342 | 0.392 | 1 | 1.04 | 1.09 | 1.1 | 1.08 | 0.374 | 0.443 | 0.379 | 0.421 | 0.403 | 0.9 | 0.934 | 1.02 | 0.915 | 1.07
NCI-H647 | – | 0.413 | 0.37 | 0.226 | 0.341 | 0.386 | 0.296 | 0.494 | 0.368 | 0.454 | 0.385 | 0.602 | 0.427 | 0.455 | 0.363 | 0.978 | 0.997 | 0.975 | – | 0.966
NCI-H661 | 0.322 | 0.391 | 0.359 | 0.472 | 0.333 | 0.558 | 0.654 | 0.547 | 0.57 | 0.557 | 0.318 | 0.449 | 0.422 | 0.357 | 0.369 | 0.673 | 0.488 | 0.446 | 0.508 | 0.486
NCI-H727 | 0.347 | 0.466 | 0.369 | 0.316 | 0.227 | 0.832 | 0.932 | 0.807 | 0.717 | 0.891 | 0.221 | 0.358 | 0.413 | 0.41 | 0.456 | 0.884 | 0.903 | 0.695 | 0.555 | 0.565
NCI-H838 | 0.343 | 0.357 | 0.399 | 0.293 | 0.314 | 0.483 | 0.484 | 0.497 | 0.47 | 0.517 | 0.441 | 0.442 | 0.639 | 0.485 | 0.459 | 1.08 | 0.908 | 0.822 | 0.562 | 0.615
NCI-H1355 | 0.195 | 0.363 | 0.311 | 0.257 | 0.337 | 0.341 | 0.35 | 0.376 | 0.347 | 0.431 | 0.405 | 0.389 | 0.452 | 0.444 | 0.458 | 0.765 | 0.756 | 0.699 | 0.616 | 0.702
NCI-H1395 | – | 0.553 | 0.562 | 0.465 | 0.484 | – | 0.683 | 0.757 | 0.737 | 0.745 | 0.787 | 0.619 | 0.83 | 0.612 | 0.674 | – | 0.797 | 0.967 | 0.663 | 0.814
NCI-H1437 | 0.371 | 0.406 | 0.44 | 0.249 | 0.222 | 0.58 | 0.602 | 0.558 | 0.584 | 0.571 | 0.457 | 0.479 | 0.418 | 0.409 | 0.448 | 0.946 | 0.809 | 0.898 | 0.507 | 0.377
NCI-H1650 | 0.286 | 0.44 | 0.53 | 0.353 | 0.468 | 0.428 | 0.416 | 0.389 | 0.517 | 0.417 | 0.526 | 0.519 | 0.548 | 0.631 | 0.731 | 0.395 | 0.665 | 0.739 | 0.521 | 0.839
NCI-H1651 | 0.687 | 0.541 | 0.66 | 0.365 | 0.528 | 0.588 | 0.623 | 0.678 | 0.491 | 0.584 | 0.622 | 0.678 | 0.64 | 0.451 | 0.739 | 0.633 | 0.763 | 0.865 | 0.537 | 0.741
NCI-H1666 | 0.351 | 0.296 | 0.277 | 0.238 | 0.293 | 0.618 | 0.872 | 0.722 | 0.592 | 0.632 | 0.313 | 0.596 | 0.427 | 0.43 | 0.55 | 0.503 | 0.405 | 0.286 | 0.337 | 0.365
